# Earlier results as cited in patent US9040083B2, “Orally effective methylphenidate extended release powder and aqueous suspension product” (Tris Pharma, Inc., priority 2011, dated 2015).
# Conditions: oral dosing of radiolabeled methylphenidate in humans
compound,measurement,value
COC(=O)C(c1ccccc1)C1CCCCN1 (stereo not shown) [methylphenidate],radioactivity recovered in urine,about 90%
